Reference: the kinase profiling compilation of Christmann-Franck et al. (2016)

Tests used:
Assay in all cases: KINOMEscan competition binding
Conditions in all cases: compound 10.0 µM
SRPK1 (human) = SRPK1 (human) (UniProt Q96SB4)
BMPR1A (human) = BMPR1A (human) (UniProt P36894)
STK36 (human) = STK36 (human) (UniProt Q9NRP7)
LIMK1 (human) = LIMK1 (human) (UniProt P53667)
TEC (human) = TEC (human) (UniProt P42680)
MLTK (human) = MLTK (human) (UniProt Q9NYL2)
CDK3 (human) = CDK3 (human) (UniProt Q00526)
MET (human) = MET (human) (UniProt P08581)
MARK2 (human) = MARK2 (human) (UniProt Q7KZI7)
Chain of MARK2 (human) (Q7KZI7 whole entry, looked up): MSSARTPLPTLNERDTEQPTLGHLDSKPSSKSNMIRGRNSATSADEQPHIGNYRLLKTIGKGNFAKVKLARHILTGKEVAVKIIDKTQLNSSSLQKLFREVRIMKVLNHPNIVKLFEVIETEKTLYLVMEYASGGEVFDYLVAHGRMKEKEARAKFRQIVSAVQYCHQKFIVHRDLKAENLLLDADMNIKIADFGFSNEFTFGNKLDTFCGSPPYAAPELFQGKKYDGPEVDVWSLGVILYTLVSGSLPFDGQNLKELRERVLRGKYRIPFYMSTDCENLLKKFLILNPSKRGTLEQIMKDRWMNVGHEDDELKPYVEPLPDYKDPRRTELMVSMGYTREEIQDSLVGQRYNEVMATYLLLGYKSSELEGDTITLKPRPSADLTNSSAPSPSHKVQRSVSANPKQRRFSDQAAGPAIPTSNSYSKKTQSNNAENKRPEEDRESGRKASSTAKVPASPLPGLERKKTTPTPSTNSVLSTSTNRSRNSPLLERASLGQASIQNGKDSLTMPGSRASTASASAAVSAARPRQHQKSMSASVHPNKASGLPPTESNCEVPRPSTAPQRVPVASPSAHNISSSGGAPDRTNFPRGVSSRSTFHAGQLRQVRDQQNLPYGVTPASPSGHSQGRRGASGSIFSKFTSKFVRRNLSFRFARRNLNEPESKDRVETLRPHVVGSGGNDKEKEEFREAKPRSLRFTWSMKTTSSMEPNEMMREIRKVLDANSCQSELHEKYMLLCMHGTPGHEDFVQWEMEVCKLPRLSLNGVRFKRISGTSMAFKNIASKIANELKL

MAP2K5 (human) = MAP2K5 (human) (UniProt Q13163)
RPS6KA4 KD2 (human) = RPS6KA4 KD2 (human) (UniProt O75676)
CPK1 (P.falciparum) = tested on: CPK1 (P.falciparum)
FGFR3 (human) = FGFR3 (human) (UniProt P22607)
MAPK13 (human) = MAPK13 (human) (UniProt O15264)
STK3 (human) = STK3 (human) (UniProt Q13188)
Chain of STK3 (human) (Q13188 whole entry, looked up): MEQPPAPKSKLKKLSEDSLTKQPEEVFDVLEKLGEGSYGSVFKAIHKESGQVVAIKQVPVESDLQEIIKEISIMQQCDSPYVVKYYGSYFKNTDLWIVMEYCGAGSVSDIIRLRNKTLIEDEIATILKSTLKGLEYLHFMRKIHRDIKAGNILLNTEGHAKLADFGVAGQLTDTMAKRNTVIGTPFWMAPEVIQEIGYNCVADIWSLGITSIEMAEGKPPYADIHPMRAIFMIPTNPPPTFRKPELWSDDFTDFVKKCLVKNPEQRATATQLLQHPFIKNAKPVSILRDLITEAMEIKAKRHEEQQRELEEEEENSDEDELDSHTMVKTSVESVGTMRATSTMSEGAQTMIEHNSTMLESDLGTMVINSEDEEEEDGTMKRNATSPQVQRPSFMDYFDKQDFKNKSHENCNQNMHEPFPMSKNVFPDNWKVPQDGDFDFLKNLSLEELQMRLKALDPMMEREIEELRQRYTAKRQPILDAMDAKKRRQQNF

FES (human) = FES (human) (UniProt P07332)
INSRR (human) = INSRR (human) (UniProt P14616)
PRKCQ (human) = PRKCQ (human) (UniProt Q04759)
Chain of PRKCQ (human) (Q04759 whole entry, looked up): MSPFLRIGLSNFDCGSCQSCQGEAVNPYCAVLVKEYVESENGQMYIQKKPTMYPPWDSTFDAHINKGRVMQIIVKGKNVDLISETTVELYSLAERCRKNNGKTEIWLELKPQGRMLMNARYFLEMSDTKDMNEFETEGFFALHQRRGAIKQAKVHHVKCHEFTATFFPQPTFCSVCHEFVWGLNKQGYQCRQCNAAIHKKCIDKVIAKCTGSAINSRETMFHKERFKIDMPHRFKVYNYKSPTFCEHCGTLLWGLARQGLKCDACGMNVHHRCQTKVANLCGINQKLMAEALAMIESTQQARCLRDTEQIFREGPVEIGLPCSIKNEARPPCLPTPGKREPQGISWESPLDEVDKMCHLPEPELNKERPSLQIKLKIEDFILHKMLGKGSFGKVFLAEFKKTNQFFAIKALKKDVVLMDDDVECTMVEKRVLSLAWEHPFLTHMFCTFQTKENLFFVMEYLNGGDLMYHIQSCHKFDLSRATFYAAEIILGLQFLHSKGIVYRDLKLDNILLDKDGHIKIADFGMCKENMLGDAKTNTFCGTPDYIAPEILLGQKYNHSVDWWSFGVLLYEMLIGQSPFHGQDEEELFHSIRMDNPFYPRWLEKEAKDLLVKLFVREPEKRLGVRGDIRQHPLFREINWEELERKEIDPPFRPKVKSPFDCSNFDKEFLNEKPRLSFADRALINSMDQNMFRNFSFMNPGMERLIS

FLT4 (human) = FLT4 (human) (UniProt P35916)
CHEK1 (human) = CHEK1 (human) (UniProt O14757)
PHKG2 (human) = PHKG2 (human) (UniProt P15735)
DCLK3 (human) = DCLK3 (human) (UniProt Q9C098)
PKN2 (human) = PKN2 (human) (UniProt Q16513)
EPHB3 (human) = EPHB3 (human) (UniProt P54753)
VRK2 (human) = VRK2 (human) (UniProt Q86Y07)
MAP4K2 (human) = MAP4K2 (human) (UniProt Q12851)
CIT (human) = CIT (human) (UniProt O14578)
RPS6KA1 KD1 (human) = RPS6KA1 KD1 (human) (UniProt Q15418)
MAP3K7 (human) = MAP3K7 (human) (UniProt O43318)
Chain of MAP3K7 (human) (O43318 whole entry, looked up): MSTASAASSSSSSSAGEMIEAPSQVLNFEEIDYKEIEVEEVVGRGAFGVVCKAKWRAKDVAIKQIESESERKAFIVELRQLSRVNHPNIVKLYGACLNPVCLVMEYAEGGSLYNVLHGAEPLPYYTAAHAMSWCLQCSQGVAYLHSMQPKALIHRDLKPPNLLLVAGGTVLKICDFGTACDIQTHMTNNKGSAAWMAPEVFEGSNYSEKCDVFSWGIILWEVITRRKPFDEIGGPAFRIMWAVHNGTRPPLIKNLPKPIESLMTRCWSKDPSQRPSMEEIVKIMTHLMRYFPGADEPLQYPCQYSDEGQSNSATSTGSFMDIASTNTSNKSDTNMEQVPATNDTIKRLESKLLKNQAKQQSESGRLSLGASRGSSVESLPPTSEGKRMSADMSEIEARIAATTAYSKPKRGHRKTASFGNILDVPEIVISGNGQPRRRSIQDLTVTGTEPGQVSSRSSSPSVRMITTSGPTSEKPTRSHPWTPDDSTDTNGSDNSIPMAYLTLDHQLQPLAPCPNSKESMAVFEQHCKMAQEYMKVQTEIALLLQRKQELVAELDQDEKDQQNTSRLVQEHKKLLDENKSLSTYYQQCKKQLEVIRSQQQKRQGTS

[1] = tested on: RET (human), P07949 [V804M]
TNK1 (human) = TNK1 (human) (UniProt Q13470)
STK24 (human) = STK24 (human) (UniProt Q9Y6E0)
EPHB2 (human) = EPHB2 (human) (UniProt P29323)
ALK (human) = ALK (human) (UniProt Q9UM73)
PIM3 (human) = PIM3 (human) (UniProt Q86V86)
PHKG1 (human) = PHKG1 (human) (UniProt Q16816)
Chain of PHKG1 (human) (Q16816 whole entry, looked up): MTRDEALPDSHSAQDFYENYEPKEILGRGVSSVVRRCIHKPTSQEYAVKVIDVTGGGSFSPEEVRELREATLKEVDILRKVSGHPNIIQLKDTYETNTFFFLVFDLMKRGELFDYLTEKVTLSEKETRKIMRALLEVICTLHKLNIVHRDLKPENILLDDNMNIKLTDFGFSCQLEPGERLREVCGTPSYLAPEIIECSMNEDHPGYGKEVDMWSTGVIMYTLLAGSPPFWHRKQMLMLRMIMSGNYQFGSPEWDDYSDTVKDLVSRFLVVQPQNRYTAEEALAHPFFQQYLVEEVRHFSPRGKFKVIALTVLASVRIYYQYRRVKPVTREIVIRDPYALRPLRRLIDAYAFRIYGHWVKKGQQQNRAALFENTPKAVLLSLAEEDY

PRKX (human) = PRKX (human) (UniProt P51817)
CSF1R (human) = CSF1R (human) (UniProt P07333)
EPHB4 (human) = EPHB4 (human) (UniProt P54760)
Chain of EPHB4 (human) (P54760 whole entry, looked up): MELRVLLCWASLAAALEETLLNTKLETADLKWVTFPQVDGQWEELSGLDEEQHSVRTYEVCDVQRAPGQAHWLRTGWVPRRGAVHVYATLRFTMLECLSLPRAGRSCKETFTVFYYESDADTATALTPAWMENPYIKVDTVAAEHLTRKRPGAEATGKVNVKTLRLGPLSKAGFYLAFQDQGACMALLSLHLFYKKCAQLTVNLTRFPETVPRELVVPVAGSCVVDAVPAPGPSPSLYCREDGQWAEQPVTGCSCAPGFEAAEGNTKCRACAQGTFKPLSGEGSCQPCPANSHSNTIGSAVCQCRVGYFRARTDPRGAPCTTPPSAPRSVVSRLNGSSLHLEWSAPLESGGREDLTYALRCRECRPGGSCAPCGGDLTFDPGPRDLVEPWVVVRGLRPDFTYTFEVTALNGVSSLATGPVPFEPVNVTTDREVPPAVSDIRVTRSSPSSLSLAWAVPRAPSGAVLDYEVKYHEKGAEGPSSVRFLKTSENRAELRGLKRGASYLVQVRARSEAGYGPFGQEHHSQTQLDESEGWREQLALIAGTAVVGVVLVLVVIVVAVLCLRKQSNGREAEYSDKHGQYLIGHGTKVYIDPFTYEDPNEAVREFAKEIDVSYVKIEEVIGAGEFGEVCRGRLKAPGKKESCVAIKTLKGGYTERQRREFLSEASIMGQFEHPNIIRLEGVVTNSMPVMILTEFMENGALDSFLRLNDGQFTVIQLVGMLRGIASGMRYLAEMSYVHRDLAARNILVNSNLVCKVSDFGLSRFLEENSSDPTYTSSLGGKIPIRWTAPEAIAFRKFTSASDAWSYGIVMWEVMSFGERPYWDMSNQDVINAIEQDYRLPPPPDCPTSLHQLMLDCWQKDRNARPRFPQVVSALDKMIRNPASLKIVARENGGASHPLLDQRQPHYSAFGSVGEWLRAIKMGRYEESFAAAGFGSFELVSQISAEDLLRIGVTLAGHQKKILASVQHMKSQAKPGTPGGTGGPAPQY

NTRK3 (human) = NTRK3 (human) (UniProt Q16288)

Chain of TEC (human) (P42680 whole entry, looked up): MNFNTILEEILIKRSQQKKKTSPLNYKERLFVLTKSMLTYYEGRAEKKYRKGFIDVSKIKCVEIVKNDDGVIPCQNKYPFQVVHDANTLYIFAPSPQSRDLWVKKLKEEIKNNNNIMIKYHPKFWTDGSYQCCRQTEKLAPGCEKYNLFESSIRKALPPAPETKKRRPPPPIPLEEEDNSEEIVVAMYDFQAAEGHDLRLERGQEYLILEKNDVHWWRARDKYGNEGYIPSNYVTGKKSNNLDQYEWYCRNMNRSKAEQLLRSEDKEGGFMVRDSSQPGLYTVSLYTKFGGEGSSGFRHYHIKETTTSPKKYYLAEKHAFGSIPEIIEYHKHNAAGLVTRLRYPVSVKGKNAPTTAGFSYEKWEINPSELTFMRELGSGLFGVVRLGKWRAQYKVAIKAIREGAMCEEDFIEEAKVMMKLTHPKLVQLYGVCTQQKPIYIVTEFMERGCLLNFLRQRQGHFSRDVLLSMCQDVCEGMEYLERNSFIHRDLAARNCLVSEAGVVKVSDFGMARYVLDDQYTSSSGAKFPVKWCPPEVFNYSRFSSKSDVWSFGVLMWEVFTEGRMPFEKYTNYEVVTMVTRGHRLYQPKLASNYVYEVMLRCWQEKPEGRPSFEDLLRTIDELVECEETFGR

CNC(=O)c1cc(Oc2ccc(NC(=O)Nc3ccc(Cl)c(C(F)(F)F)c3)cc2)ccn1
kinase still bound, per cent of control (SRPK1 (human)): 80%
kinase still bound, per cent of control (BMPR1A (human)): 100%
kinase still bound, per cent of control (STK36 (human)): 23%
kinase still bound, per cent of control (LIMK1 (human)): 30%
kinase still bound, per cent of control (TEC (human)): 100%
kinase still bound, per cent of control (MLTK (human)): 4.2%
kinase still bound, per cent of control (CDK3 (human)): 52%
kinase still bound, per cent of control (MET (human)): 69%
kinase still bound, per cent of control (MARK2 (human)): 98%
kinase still bound, per cent of control (MAP2K5 (human)): 0.3%
kinase still bound, per cent of control (RPS6KA4 KD2 (human)): 89%
kinase still bound, per cent of control (CPK1 (P.falciparum)): 0.95%
kinase still bound, per cent of control (FGFR3 (human)): 31%
kinase still bound, per cent of control (MAPK13 (human)): 7.6%
kinase still bound, per cent of control (STK3 (human)): 85%
kinase still bound, per cent of control (FES (human)): 74%
kinase still bound, per cent of control (INSRR (human)): 97%
kinase still bound, per cent of control (PRKCQ (human)): 84%
kinase still bound, per cent of control (FLT4 (human)): 0%
kinase still bound, per cent of control (CHEK1 (human)): 91%
kinase still bound, per cent of control (PHKG2 (human)): 100%
kinase still bound, per cent of control (DCLK3 (human)): 75%
kinase still bound, per cent of control (PKN2 (human)): 100%
kinase still bound, per cent of control (EPHB3 (human)): 100%
kinase still bound, per cent of control (VRK2 (human)): 100%
kinase still bound, per cent of control (MAP4K2 (human)): 100%
kinase still bound, per cent of control (CIT (human)): 17%
kinase still bound, per cent of control (RPS6KA1 KD1 (human)): 82%
kinase still bound, per cent of control (MAP3K7 (human)): 6.2%
kinase still bound, per cent of control [1]: 0%
kinase still bound, per cent of control (TNK1 (human)): 37%
kinase still bound, per cent of control (STK24 (human)): 97%
kinase still bound, per cent of control (EPHB2 (human)): 17%
kinase still bound, per cent of control (ALK (human)): 69%
kinase still bound, per cent of control (PIM3 (human)): 80%
kinase still bound, per cent of control (PHKG1 (human)): 90%
kinase still bound, per cent of control (PRKX (human)): 100%

CCN(CC)CCCCNc1ncc2c(n1)N(C)C(=O)N(c1c(Cl)c(OC)cc(OC)c1Cl)C2
kinase still bound, per cent of control (SRPK1 (human)): 100%
kinase still bound, per cent of control (BMPR1A (human)): 100%
kinase still bound, per cent of control (STK36 (human)): 100%
kinase still bound, per cent of control (CSF1R (human)): 0.15%
kinase still bound, per cent of control (LIMK1 (human)): 100%
kinase still bound, per cent of control (TEC (human)): 100%
kinase still bound, per cent of control (MLTK (human)): 100%
kinase still bound, per cent of control (EPHB4 (human)): 100%
kinase still bound, per cent of control (CDK3 (human)): 100%
kinase still bound, per cent of control (MET (human)): 100%
kinase still bound, per cent of control (MARK2 (human)): 100%
kinase still bound, per cent of control (RPS6KA4 KD2 (human)): 100%
kinase still bound, per cent of control (FGFR3 (human)): 3.3%
kinase still bound, per cent of control (MAPK13 (human)): 100%
kinase still bound, per cent of control (STK3 (human)): 100%
kinase still bound, per cent of control (FES (human)): 100%
kinase still bound, per cent of control (INSRR (human)): 100%
kinase still bound, per cent of control (PRKCQ (human)): 100%
kinase still bound, per cent of control (FLT4 (human)): 100%
kinase still bound, per cent of control (CHEK1 (human)): 100%
kinase still bound, per cent of control (PHKG2 (human)): 100%
kinase still bound, per cent of control (DCLK3 (human)): 100%
kinase still bound, per cent of control (PKN2 (human)): 100%
kinase still bound, per cent of control (EPHB3 (human)): 100%
kinase still bound, per cent of control (MAP4K2 (human)): 100%
kinase still bound, per cent of control (CIT (human)): 100%
kinase still bound, per cent of control (RPS6KA1 KD1 (human)): 100%
kinase still bound, per cent of control (NTRK3 (human)): 100%
kinase still bound, per cent of control (MAP3K7 (human)): 100%
kinase still bound, per cent of control [1]: 100%
kinase still bound, per cent of control (TNK1 (human)): 100%
kinase still bound, per cent of control (STK24 (human)): 13%
kinase still bound, per cent of control (EPHB2 (human)): 100%
kinase still bound, per cent of control (ALK (human)): 100%
kinase still bound, per cent of control (PIM3 (human)): 100%
kinase still bound, per cent of control (PHKG1 (human)): 100%
kinase still bound, per cent of control (PRKX (human)): 100%

CNC(=O)c1ccc(Nc2cc(Nc3ccccc3S(=O)(=O)C(C)C)c3cc[nH]c3n2)nc1
kinase still bound, per cent of control (SRPK1 (human)): 2%
kinase still bound, per cent of control (BMPR1A (human)): 100%
kinase still bound, per cent of control (STK36 (human)): 100%
kinase still bound, per cent of control (CSF1R (human)): 30%
kinase still bound, per cent of control (LIMK1 (human)): 100%
kinase still bound, per cent of control (TEC (human)): 2.6%
kinase still bound, per cent of control (MLTK (human)): 100%
kinase still bound, per cent of control (EPHB4 (human)): 100%
kinase still bound, per cent of control (CDK3 (human)): 100%
kinase still bound, per cent of control (MET (human)): 1%
kinase still bound, per cent of control (MARK2 (human)): 33%
kinase still bound, per cent of control (RPS6KA4 KD2 (human)): 100%
kinase still bound, per cent of control (FGFR3 (human)): 18%
kinase still bound, per cent of control (MAPK13 (human)): 100%
kinase still bound, per cent of control (STK3 (human)): 0.2%
kinase still bound, per cent of control (FES (human)): 12%
kinase still bound, per cent of control (INSRR (human)): 3.2%
kinase still bound, per cent of control (PRKCQ (human)): 24%
kinase still bound, per cent of control (FLT4 (human)): 29%
kinase still bound, per cent of control (CHEK1 (human)): 100%
kinase still bound, per cent of control (PHKG2 (human)): 100%
kinase still bound, per cent of control (DCLK3 (human)): 2.8%
kinase still bound, per cent of control (PKN2 (human)): 5.4%
kinase still bound, per cent of control (EPHB3 (human)): 100%
kinase still bound, per cent of control (MAP4K2 (human)): 11%
kinase still bound, per cent of control (CIT (human)): 100%
kinase still bound, per cent of control (RPS6KA1 KD1 (human)): 0.8%
kinase still bound, per cent of control (NTRK3 (human)): 0.4%
kinase still bound, per cent of control (MAP3K7 (human)): 0.35%
kinase still bound, per cent of control [1]: 1.2%
kinase still bound, per cent of control (TNK1 (human)): 4%
kinase still bound, per cent of control (STK24 (human)): 100%
kinase still bound, per cent of control (EPHB2 (human)): 100%
kinase still bound, per cent of control (ALK (human)): 1.8%
kinase still bound, per cent of control (PIM3 (human)): 100%
kinase still bound, per cent of control (PHKG1 (human)): 100%
kinase still bound, per cent of control (PRKX (human)): 100%

O=C1NC(=O)/C(=C/c2ccc3nccc(-c4ccncc4)c3c2)S1
kinase still bound, per cent of control (SRPK1 (human)): 100%
kinase still bound, per cent of control (BMPR1A (human)): 2%
kinase still bound, per cent of control (STK36 (human)): 89%
kinase still bound, per cent of control (LIMK1 (human)): 88%
kinase still bound, per cent of control (TEC (human)): 73%
kinase still bound, per cent of control (MLTK (human)): 16%
kinase still bound, per cent of control (EPHB4 (human)): 74%
kinase still bound, per cent of control (CDK3 (human)): 87%
kinase still bound, per cent of control (MET (human)): 32%
kinase still bound, per cent of control (MARK2 (human)): 74%
kinase still bound, per cent of control (MAP2K5 (human)): 46%
kinase still bound, per cent of control (RPS6KA4 KD2 (human)): 63%
kinase still bound, per cent of control (CPK1 (P.falciparum)): 11%
kinase still bound, per cent of control (FGFR3 (human)): 100%
kinase still bound, per cent of control (MAPK13 (human)): 100%
kinase still bound, per cent of control (STK3 (human)): 54%
kinase still bound, per cent of control (FES (human)): 100%
kinase still bound, per cent of control (INSRR (human)): 70%
kinase still bound, per cent of control (PRKCQ (human)): 60%
kinase still bound, per cent of control (FLT4 (human)): 98%
kinase still bound, per cent of control (CHEK1 (human)): 57%
kinase still bound, per cent of control (PHKG2 (human)): 6%
kinase still bound, per cent of control (DCLK3 (human)): 11%
kinase still bound, per cent of control (PKN2 (human)): 31%
kinase still bound, per cent of control (EPHB3 (human)): 71%
kinase still bound, per cent of control (VRK2 (human)): 81%
kinase still bound, per cent of control (MAP4K2 (human)): 5.8%
kinase still bound, per cent of control (CIT (human)): 4.4%
kinase still bound, per cent of control (RPS6KA1 KD1 (human)): 51%
kinase still bound, per cent of control (NTRK3 (human)): 68%
kinase still bound, per cent of control (MAP3K7 (human)): 62%
kinase still bound, per cent of control [1]: 96%
kinase still bound, per cent of control (TNK1 (human)): 52%
kinase still bound, per cent of control (STK24 (human)): 87%
kinase still bound, per cent of control (EPHB2 (human)): 86%
kinase still bound, per cent of control (ALK (human)): 25%
kinase still bound, per cent of control (PIM3 (human)): 2.4%
kinase still bound, per cent of control (PHKG1 (human)): 31%
kinase still bound, per cent of control (PRKX (human)): 19%
